Measurements published in patent EP4417602A1, “SUBSTITUTED PYRAZOLE CARBOXAMIDES, SALTS THEREOF AND THEIR USE AS HERBICIDALLY ACTIVE SUBSTANCES” (Bayer AG, priority 2023, dated 2024).

What was measured:
DIGSA = assay: A. Herbicidal pre-emergence action on harmful plants (Tables A); assay type: in vivo, Digitaria sanguinalis
Description: (§1) Seeds of mono- and dicotyledonous weed plants were sown in plastic pots (double sowings with one species of mono- and one species of dicotyledonous weed plants per pot), in sandy loam, and covered with soil. The compounds according to the invention, formulated in the form of wettable powders (WP) or as emulsifiable concentrates (EC), were applied to the surface of the covering soil as aqueous suspension or emulsion, with the addition of 0.5% of an additive, at an application rate of 6001 of water per hectare (converted). Following treatment, the pots were placed in a greenhouse and kept under optimum growth conditions for the test plants. The visual grading of the damage to the test plants was carried out after ca. 3 weeks in comparison to untreated controls (herbicidal effect in percent (%): 100% effect = plants have died off, 0% effect = as control plants). Tables A1 to A12, below, show the effects of selected compounds of the general formula (I) according to table 1 on various harmful plants and an application rate corresponding to 1280 g/ha or below obtained by the experimental procedure mentioned above. Table A1: pre-emergence activity at 1280g/ha against ABUTH in %

SETVI = assay: as above; assay type: in vivo, Setaria viridis; settings: visual grading after ca. 3 weeks vs untreated controls, 100% = plants have died off, 0% = as control plants
Description: as §1

ECHCG = assay: as above; assay type: in vivo, Echinochloa crus-galli; settings: visual grading after ca. 3 weeks vs untreated controls, 100% = plants have died off, 0% = as control plants
Description: as §1

MATIN = assay: as above; assay type: in vivo, Matricaria inodora; settings: visual grading after ca. 3 weeks vs untreated controls, 100% = plants have died off, 0% = as control plants
Description: as §1

LOLRI = assay: as above; assay type: in vivo, Lolium rigidum; settings: visual grading after ca. 3 weeks vs untreated controls, 100% = plants have died off, 0% = as control plants
Description: as §1

POAAN [1] = assay: as above; assay type: in vivo, Poa annua
Description: as §1

ALOMY = assay: as above; assay type: in vivo, Alopecurus myosuroides
Description: as §1

STEME = assay: as above; assay type: in vivo, Stellaria media; settings: visual grading after ca. 3 weeks vs untreated controls, 100% = plants have died off, 0% = as control plants
Description: as §1

POAAN [2] = assay: B. Herbicidal post-emergence action on harmful plants (Tables B); assay type: in vivo, Poa annua
Description: Seeds of mono- and dicotyledonous weed plants were placed in plastic pots in sandy loam soil (doubly sown with in each case one species of mono- or dicotyledonous weed plants per pot), covered with soil and cultivated in a greenhouse under controlled growth conditions. 2 to 3 weeks after sowing, the test plants were treated at the one-leaf stage. The compounds of the invention, formulated in the form of wettable powders (WP) or as emulsion concentrates (EC), were applied onto the green parts of the plants as aqueous suspension or emulsion with addition of 0.5% additive at a water application rate of 600 liters per hectare (converted). After the test plants had been kept in the greenhouse under optimum growth conditions for about 3 weeks, the activity of the preparations was rated visually in comparison to untreated controls. For example, 100% activity = the plants have died, 0% activity = like control plants. Tables B1 to B12, below, show the effects of selected compounds of the general formula (I) according to table 1 on various harmful plants and an application rate corresponding to 1280 g/ha or below obtained by the experimental procedure mentioned above. Table B1a: post-emergence activity at 1280g/ha against ABUTH in %

[3] = application rate 320 g/ha, Table A12b
[4] = application rate 1280 g/ha, Table A12a
[5] = application rate 320 g/ha, Table A7b
[6] = application rate 1280 g/ha, visual grading after ca. 3 weeks vs untreated controls, 100% = plants have died off, 0% = as control plants
[7] = application rate 1280 g/ha, Table A9a
[8] = application rate 80 g/ha, Table A7c
[9] = application rate 320 g/ha, Table B7b
[10] = application rate 1280 g/ha, Table B7a
[11] = application rate 80 g/ha, Table A12c

Compound | pre-emergence activity against DIGSA (DIGSA; [3]) [%] | pre-emergence activity against DIGSA (DIGSA; [4]) [%] | pre-emergence activity against SETVI (SETVI; application rate 1280 g/ha) [%] | pre-emergence activity against ECHCG (ECHCG; application rate 1280 g/ha) [%] | pre-emergence activity against MATIN (MATIN; application rate 1280 g/ha) [%] | pre-emergence activity against LOLRI (LOLRI; application rate 1280 g/ha) [%] | pre-emergence activity against POAAN (POAAN [1]; [5]) [%] | pre-emergence activity against POAAN (POAAN [1]; [6]) [%] | pre-emergence activity against ECHCG (ECHCG; application rate 320 g/ha) [%] | pre-emergence activity against STEME (STEME; application rate 1280 g/ha) [%] | post-emergence activity against POAAN (POAAN [2]; [10]) [%] | other results
COCc1nn(C(C)C)cc1C(=O)N1CCCC1Cc1ccccc1F (racemic) [Example I-025] | 90 | 100 | 90 | 90 | 90 | 90 | 100 | 100 | – | – | – | –
COCc1nn(CC2CC2)cc1C(=O)N1CCCC1Cc1ccccc1F (racemic) [Example I-026] | – | 100 | 90 | 90 | – | – | – | 100 | – | – | – | –
CCn1cc(C(=O)N2CCCC2Cc2ccccc2F)c(COC)n1 (racemic) [Example I-027] | 90 | 90 | 100 | 90 | – | 90 | – | – | 90 | 90 | – | pre-emergence activity against SETVI (SETVI; application rate 320 g/ha): 100%; pre-emergence activity against ALOMY (ALOMY; [7]): 90%
COCc1nn(CC2OCCO2)cc1C(=O)N1CCCC1Cc1ccccc1F (racemic) [Example I-028] | – | 90 | 90 | 90 | – | – | – | 100 | – | – | – | –
COCc1nn(CC#N)cc1C(=O)N1CCCC1Cc1ccccc1F (racemic) [Example I-029] | – | 100 | 100 | 90 | 90 | – | – | 90 | – | – | – | –
COCCOCCn1cc(C(=O)N2CCCC2Cc2ccccc2F)c(COC)n1 (racemic) [Example I-030] | – | 90 | 90 | 90 | 90 | – | 90 | 100 | – | – | – | pre-emergence activity against POAAN (POAAN [1]; [8]): 90%
COCCn1cc(C(=O)N2CCCC2Cc2ccccc2F)c(COC)n1 (racemic) [Example I-032] | – | 100 | 90 | 90 | – | 100 | 100 | 100 | 90 | – | – | pre-emergence activity against SETVI (SETVI; application rate 320 g/ha): 90%
COCc1nn(CC(OC)OC)cc1C(=O)N1CCCC1Cc1ccccc1F (racemic) [Example I-047] | – | 90 | – | 100 | – | 90 | – | 100 | – | – | – | –
COC(=O)c1nn(C)cc1C(=O)N1CCCC1Cc1ccc(F)cc1F (racemic) [Example I-096] | – | 100 | – | 100 | – | – | 100 | 100 | 100 | 100 | 100 | post-emergence activity against POAAN (POAAN [2]; [9]): 100%
Cn1cc(C(=O)N2CCC2Cc2ccccc2F)c(COCC(F)F)n1 (racemic) [Example I-108] | – | 100 | 100 | 100 | 100 | 90 | 100 | 100 | 100 | 90 | 90 | pre-emergence activity against POAAN (POAAN [1]; [8]): 90%
Cn1cc(C(=O)N2CCC2Cc2ccccc2Cl)c(COCC(F)F)n1 (racemic) [Example I-109] | 90 | 100 | 90 | 100 | 100 | – | 100 | 100 | 100 | – | – | –
COCc1c(C(=O)N2CCCC2Cc2c(F)cccc2Cl)cnn1C (racemic) [Example I-151] | – | 100 | 90 | 100 | – | 90 | – | 100 | – | 90 | – | –
COCc1c(C(=O)N2CCCC2Cc2ccc(F)cc2F)cnn1C (single isomer, unassigned) [Example I-119] | 90 | 100 | 100 | 90 | – | 100 | – | 100 | – | – | 90 | pre-emergence activity against SETVI (SETVI; application rate 320 g/ha): 90%
COCc1c(C(=O)N2CCCC2Cc2c(F)cccc2F)cnn1C (single isomer, unassigned) [Example I-126] | 100 | 100 | 100 | 90 | 90 | 100 | 90 | 100 | 90 | 90 | 90 | pre-emergence activity against DIGSA (DIGSA; [11]): 90%; pre-emergence activity against SETVI (SETVI; application rate 80 g/ha): 90%; pre-emergence activity against SETVI (SETVI; application rate 320 g/ha): 90%; pre-emergence activity against ECHCG (ECHCG; application rate 80 g/ha): 90%; post-emergence activity against POAAN (POAAN [2]; application rate 80 g/ha, Table B7c): 90%; post-emergence activity against POAAN (POAAN [2]; [9]): 90%; pre-emergence activity against ALOMY (ALOMY; application rate 320 g/ha, Table A9b): 90%; pre-emergence activity against ALOMY (ALOMY; [7]): 90%; pre-emergence activity against LOLRI (LOLRI; application rate 320 g/ha): 90%; pre-emergence activity against STEME (STEME; application rate 320 g/ha): 90%; pre-emergence activity against POAAN (POAAN [1]; [8]): 90%
COCc1c(C(=O)N2CCCC2Cc2cccc(F)c2F)cnn1C (single isomer, unassigned) [Example I-137] | 100 | 100 | 100 | 100 | 90 | 100 | 100 | 100 | 90 | – | 90 | pre-emergence activity against DIGSA (DIGSA; [11]): 100%; pre-emergence activity against ECHCG (ECHCG; application rate 80 g/ha): 90%; pre-emergence activity against MATIN (MATIN; application rate 320 g/ha): 90%; pre-emergence activity against LOLRI (LOLRI; application rate 320 g/ha): 90%; pre-emergence activity against POAAN (POAAN [1]; [8]): 100%
COCc1c(C(=O)N2CCCC2Cc2c(F)cccc2Cl)cnn1C (single isomer, unassigned) [Example I-190] | 100 | 100 | 100 | 100 | – | 90 | 100 | 100 | 90 | 90 | 90 | pre-emergence activity against POAAN (POAAN [1]; [8]): 90%
Cn1cc(C(=O)N2CCCC2Cc2ccccc2F)c(C2CCCO2)n1 (centres unmarked) [Example I-011] | – | 100 | – | 100 | – | 90 | – | 100 | – | 90 | – | –
